Test results taken from patent US10982284B2, “Compositions and methods APC, CREB, and BAD pathways to assess and affect cancer” (H. Lee Moffitt Cancer Center and Research Institute, Inc., priority 2011, dated 2021).

Tests used:
Assay in all cases: CellTiter-Blue cell viability assay
Assay type in all cases: cell-based, human
A2780S = A2780S ovarian cancer cell line, 72 hours, 50% reduction in growth/viability
From the text: (§1) Ovarian cancer cell lines were obtained from the American Type Culture Collection (Manassas, Va.) (CAOV3, OV90, OVCAR3, SKOV3, TO[…]); from the European Collection of Cell Cultures, Salisbury, UK (A2780CP, A2780S); or from Kyoto University, Kyoto, Japan ([…], Tyknu, and TyknuC is R) or were kind gifts from Dr. Patricia Kruk, Department of Pathology, College of Medicine, University of South Florida, Tampa, Fla., and Susan Murphy, PhD, Dept of OBGYN/Division of GYN Oncology, Duke University, Durham, N.C. […] Cell lines were maintained in RPMI-1640 (Invitrogen, Carlsbad, Calif.) supplemented with 10% fetal bovine serum (Fisher Scientific, Pittsburgh, Pa.), 1% sodium pyruvate, 1% penicillin/streptomycin (Cellgro, Manassas, Va.), and 1% nonessential amino acids (HyClone, Hudson, N.H.). Mycoplasma testing was performed every 6 months following manufacturer's protocol (Lonza, Rockland, Me.). Drug activity was evaluated using a high-throughput CellTiter-Blue cell viability assay. […] After cell adherence, increasing concentrations of cisplatin, carboplatin (Sigma-Aldrich, St. Louis, Mo.), paclitaxel (Sequoia Research Products Ltd., Pangbourne, UK), or carboplatin plus paclitaxel (carbotaxol: constant molar ratio of carboplatin to paclitaxel of 20,000:1) were added to appropriate wells using an automated pipetting station. Four replicate wells were used for each drug concentration and vehicle controls. […] The cells were incubated with the drug for 72 hours, and 5 μL of CellTiter-Blue reagent (Promega Corp) was added to each well. Fluorescence was read at […] using a Synergy 4 microplate reader (Bio-Tek Instruments, Inc., Winooski, Vt.).

BG1 = BG1 ovarian cancer cell line, 72 hours, 50% reduction in growth/viability
From the text: as §1

CHIcisR = CHIcisR ovarian cancer cell line, 72 hours, 50% reduction in growth/viability
From the text: as §1

CHI = CHI ovarian cancer cell line, 72 hours, 50% reduction in growth/viability
From the text: as §1

Dov13 = Dov13 ovarian cancer cell line, 72 hours, 50% reduction in growth/viability
From the text: as §1

HeyA8 = HeyA8 ovarian cancer cell line, 72 hours, 50% reduction in growth/viability
From the text: as §1

IMCC5 = IMCC5 ovarian cancer cell line, 72 hours, 50% reduction in growth/viability
From the text: as §1

OVCAR2 = OVCAR2 ovarian cancer cell line, 72 hours, 50% reduction in growth/viability
From the text: as §1

OVCAR4 = OVCAR4 ovarian cancer cell line, 72 hours, 50% reduction in growth/viability
From the text: as §1

OVCAR5 = OVCAR5 ovarian cancer cell line, 72 hours, 50% reduction in growth/viability
From the text: as §1

OVCAR8 = OVCAR8 ovarian cancer cell line, 72 hours, 50% reduction in growth/viability
From the text: as §1

Ovary1847 = Ovary1847 ovarian cancer cell line, 72 hours, 50% reduction in growth/viability
From the text: as §1

SK-OV-4 = SK-OV-4 ovarian cancer cell line, 72 hours, 50% reduction in growth/viability
From the text: as §1

SKOV3 = SKOV3 ovarian cancer cell line, 72 hours, 50% reduction in growth/viability
From the text: as §1

FUOV1 = FUOV1 ovarian cancer cell line, 72 hours, 50% reduction in growth/viability
From the text: Ovarian cancer cell lines were obtained from the American Type Culture Collection (Manassas, Va.) (CAOV3, OV90, OVCAR3, SKOV3, TOV112D); from the European Collection of Cell Cultures, Salisbury, UK (A2780CP, A2780S); or from Kyoto University, Kyoto, Japan (CHI, CHIcisR, M41, M41CSR, Tyknu, and TyknuC is R) or were kind gifts from Dr. Patricia Kruk, Department of Pathology, College of Medicine, University of South Florida, Tampa, Fla., and Susan Murphy, PhD, Dept of OBGYN/Division of GYN Oncology, Duke University, Durham, N.C. (A2008, C13, CAOV2, FUOV1, HeyA8, IGR-OV1, IMCC3, IMCC5, MCAS, OV2008, OVCA420, OVCA429, OVCA432, OVCA433, OVCAR4, OVCAR5, OVCAR8, Dov13, BG1, Ovary1847, OVCAR10, OVCAR2, SK-OV-4).
Cell lines were maintained in RPMI-1640 (Invitrogen, Carlsbad, Calif.) supplemented with 10% fetal bovine serum (Fisher Scientific, Pittsburgh, Pa.), 1% sodium pyruvate, 1% penicillin/streptomycin (Cellgro, Manassas, Va.), and 1% nonessential amino acids (HyClone, Hudson, N.H.). […]
Drug activity was evaluated using a high-throughput CellTiter-Blue cell viability assay. […] Fluorescence was read at […] using a Synergy 4 microplate reader (Bio-Tek Instruments, Inc., Winooski, Vt.). IC50 results were determined using a sigmoidal equilibrium model fit (XLfit 5.2, ID Business Solutions Ltd.). […]

## N.N.O=C([O-])C1(C(=O)[O-])CCC1.[Pt+2] [Carboplatin, carboplatin]
A2780S
  IC50: 24.3 µM
BG1
  IC50: 144 µM
CHIcisR
  IC50: 20 µM
CHI
  IC50: 23.6 µM
Dov13
  IC50: 104 µM
HeyA8
  IC50: 291 µM
IMCC5
  IC50: 41.3 µM
OVCAR2
  IC50: 45.5 µM
OVCAR4
  IC50: 72 µM
OVCAR5
  IC50: 125 µM
OVCAR8
  IC50: 56.1 µM
Ovary1847
  IC50: 172 µM
SK-OV-4
  IC50: 23 µM
SKOV3
  IC50: 247 µM
FUOV1
  IC50: 87.9 µM

## CC(=O)O[C@H]1C(=O)[C@@]2(C)[C@H]([C@H](OC(=O)c3ccccc3)[C@]3(O)C[C@H](OC(=O)[C@H](O)[C@@H](NC(=O)c4ccccc4)c4ccccc4)C(C)=C1C3(C)C)[C@]1(OC(C)=O)CO[C@@H]1C[C@@H]2O [Paclitaxel, paclitaxel]
A2780S; Homo sapiens
  IC50: 0.0024 µM
BG1; Homo sapiens, BG-1
  IC50: 0.0055 µM
CHIcisR; Homo sapiens
  IC50: 0.0018 µM
CHI; Homo sapiens
  IC50: 0.000999 µM
Dov13; Homo sapiens
  IC50: 0.0173 µM
HeyA8; Homo sapiens, HEY A8
  IC50: 0.0174 µM
IMCC5; Homo sapiens
  IC50: 0.0031 µM
OVCAR2; Homo sapiens
  IC50: 0.0028 µM
OVCAR4; Homo sapiens, OVCAR-4
  IC50: 0.0178 µM
OVCAR5; Homo sapiens, OVCAR-5
  IC50: 0.0056 µM
OVCAR8; Homo sapiens, OVCAR-8
  IC50: 0.0057 µM
Ovary1847; Homo sapiens
  IC50: 0.0056 µM
SK-OV-4; Homo sapiens
  IC50: 0.0023 µM
SKOV3; Homo sapiens, SK-OV-3
  IC50: 0.0887 µM
FUOV1; Homo sapiens
  IC50: 4.4 µM
